# Measurements as given in ChEMBL document CHEMBL1201862, “PubChem BioAssay data set” (2004).
# The source made the active and inactive calls.
# Tests used:
# Exodeoxyribonuclease V = Exodeoxyribonuclease V (Escherichia coli (strain K12), UniProt P04993+P07648+P08394); experiment: RecBCD inhibition via phage-restricted bacterial growth – absorbance, V66 E. coli, mutant T4 phage, counter-screen for AddAB inhibitor project, dose response (AID 492957); assay type: functional, cell-based, Escherichia coli str. K-12 substr. MG1655
# Chain of Exodeoxyribonuclease V (P04993 whole entry): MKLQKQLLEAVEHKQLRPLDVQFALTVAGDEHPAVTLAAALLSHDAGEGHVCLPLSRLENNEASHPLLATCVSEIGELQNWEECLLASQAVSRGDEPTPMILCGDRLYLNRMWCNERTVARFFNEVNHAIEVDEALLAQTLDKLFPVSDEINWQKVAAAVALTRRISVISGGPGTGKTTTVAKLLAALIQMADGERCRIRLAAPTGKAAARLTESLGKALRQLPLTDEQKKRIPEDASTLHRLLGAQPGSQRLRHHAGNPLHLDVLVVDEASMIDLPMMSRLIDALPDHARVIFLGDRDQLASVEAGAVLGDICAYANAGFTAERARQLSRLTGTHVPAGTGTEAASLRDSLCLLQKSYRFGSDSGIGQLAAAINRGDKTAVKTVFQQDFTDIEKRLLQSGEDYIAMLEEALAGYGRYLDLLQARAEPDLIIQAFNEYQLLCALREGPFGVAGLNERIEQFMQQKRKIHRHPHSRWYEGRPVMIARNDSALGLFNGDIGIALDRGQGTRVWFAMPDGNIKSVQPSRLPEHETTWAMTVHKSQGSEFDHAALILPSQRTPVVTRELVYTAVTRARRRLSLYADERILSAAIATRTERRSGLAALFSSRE
# Chain of Exodeoxyribonuclease V (P07648 whole entry): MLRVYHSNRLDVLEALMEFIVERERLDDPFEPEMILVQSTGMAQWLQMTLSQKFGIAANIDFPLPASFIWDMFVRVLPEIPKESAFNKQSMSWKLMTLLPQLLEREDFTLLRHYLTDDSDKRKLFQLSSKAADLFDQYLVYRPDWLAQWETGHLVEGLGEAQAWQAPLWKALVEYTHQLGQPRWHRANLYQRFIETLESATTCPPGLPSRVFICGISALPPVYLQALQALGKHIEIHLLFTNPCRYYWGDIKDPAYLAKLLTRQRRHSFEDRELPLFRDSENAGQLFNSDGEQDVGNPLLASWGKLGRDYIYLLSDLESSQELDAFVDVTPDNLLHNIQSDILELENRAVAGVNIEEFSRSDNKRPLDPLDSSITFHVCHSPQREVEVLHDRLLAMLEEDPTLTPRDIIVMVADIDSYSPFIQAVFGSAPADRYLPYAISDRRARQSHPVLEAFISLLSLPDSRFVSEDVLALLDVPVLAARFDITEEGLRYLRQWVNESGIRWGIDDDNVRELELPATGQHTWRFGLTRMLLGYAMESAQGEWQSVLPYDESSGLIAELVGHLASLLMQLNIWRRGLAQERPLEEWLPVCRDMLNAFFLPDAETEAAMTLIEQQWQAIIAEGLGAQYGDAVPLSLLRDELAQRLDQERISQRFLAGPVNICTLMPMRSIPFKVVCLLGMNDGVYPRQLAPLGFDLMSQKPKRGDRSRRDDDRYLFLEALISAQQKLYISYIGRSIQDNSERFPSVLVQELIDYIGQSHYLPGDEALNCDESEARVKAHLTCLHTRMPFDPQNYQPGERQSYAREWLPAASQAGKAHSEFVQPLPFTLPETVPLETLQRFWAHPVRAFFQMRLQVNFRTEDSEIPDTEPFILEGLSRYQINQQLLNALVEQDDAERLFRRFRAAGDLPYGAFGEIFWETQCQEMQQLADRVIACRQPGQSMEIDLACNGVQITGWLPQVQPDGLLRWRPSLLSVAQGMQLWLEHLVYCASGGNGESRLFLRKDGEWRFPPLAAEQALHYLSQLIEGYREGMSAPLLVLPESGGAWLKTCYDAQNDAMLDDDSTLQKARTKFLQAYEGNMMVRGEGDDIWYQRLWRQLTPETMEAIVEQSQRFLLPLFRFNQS
# Chain of Exodeoxyribonuclease V (P08394 whole entry): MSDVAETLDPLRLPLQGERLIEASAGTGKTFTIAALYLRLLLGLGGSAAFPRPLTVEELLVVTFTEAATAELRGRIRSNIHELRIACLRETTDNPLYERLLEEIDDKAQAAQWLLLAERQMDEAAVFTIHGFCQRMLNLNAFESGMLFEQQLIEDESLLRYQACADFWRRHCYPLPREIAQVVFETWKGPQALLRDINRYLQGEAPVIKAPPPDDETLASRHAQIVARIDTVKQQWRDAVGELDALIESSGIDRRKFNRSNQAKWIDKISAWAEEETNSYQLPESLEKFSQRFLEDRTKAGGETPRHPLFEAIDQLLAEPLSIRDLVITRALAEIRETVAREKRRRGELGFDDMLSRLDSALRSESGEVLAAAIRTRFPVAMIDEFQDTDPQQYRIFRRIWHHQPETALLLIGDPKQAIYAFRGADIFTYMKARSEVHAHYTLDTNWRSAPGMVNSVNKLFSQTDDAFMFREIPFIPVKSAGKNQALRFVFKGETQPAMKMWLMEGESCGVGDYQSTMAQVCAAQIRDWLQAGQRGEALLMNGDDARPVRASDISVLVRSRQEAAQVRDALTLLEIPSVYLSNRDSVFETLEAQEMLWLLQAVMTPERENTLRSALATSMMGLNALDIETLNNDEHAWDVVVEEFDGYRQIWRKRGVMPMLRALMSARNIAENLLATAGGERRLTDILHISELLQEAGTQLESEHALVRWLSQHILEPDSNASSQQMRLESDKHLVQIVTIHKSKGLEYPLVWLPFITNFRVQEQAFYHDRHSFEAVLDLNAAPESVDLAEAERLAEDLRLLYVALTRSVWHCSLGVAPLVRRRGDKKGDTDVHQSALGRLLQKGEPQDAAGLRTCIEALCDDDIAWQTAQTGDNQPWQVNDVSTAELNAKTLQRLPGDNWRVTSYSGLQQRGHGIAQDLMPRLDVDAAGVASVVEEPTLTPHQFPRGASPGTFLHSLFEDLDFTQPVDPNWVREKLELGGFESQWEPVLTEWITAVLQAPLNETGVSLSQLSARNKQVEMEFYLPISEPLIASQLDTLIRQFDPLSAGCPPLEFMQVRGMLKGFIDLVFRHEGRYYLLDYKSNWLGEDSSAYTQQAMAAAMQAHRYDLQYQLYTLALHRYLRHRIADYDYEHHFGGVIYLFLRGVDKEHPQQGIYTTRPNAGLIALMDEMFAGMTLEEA
# [1] = Counterscreen for AddAB inhibitors: absorbance-based bacterial cell-based high throughput dose response assay for inhibitors of bacterial viability. [Related pubchem assays (depositor defined):AID435030, AID449728, AID449731, AID488942, AID488955, AID488956]; assay type: functional
# Protein Rev = Protein Rev (Human immunodeficiency virus type 1 group M subtype B (isolate HXB2)(HIV-1), UniProt P04618); experiment: blockers of HIV Rev/RRE RNA complex – biochemical, fluorescence polarization, HIV-1, dose response (AID 434976); design: species or system Human immunodeficiency virus 1
# Chain of Protein Rev (P04618 whole entry): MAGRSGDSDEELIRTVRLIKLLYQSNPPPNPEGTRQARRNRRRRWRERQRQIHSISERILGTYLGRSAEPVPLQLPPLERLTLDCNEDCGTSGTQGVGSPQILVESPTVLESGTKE
# [2] = target: Induced myeloid leukemia cell differentiation protein Mcl-1 (Homo sapiens, UniProt Q07820); assay type: functional
# Chain of Induced myeloid leukemia cell differentiation protein Mcl-1 (Q07820 whole entry): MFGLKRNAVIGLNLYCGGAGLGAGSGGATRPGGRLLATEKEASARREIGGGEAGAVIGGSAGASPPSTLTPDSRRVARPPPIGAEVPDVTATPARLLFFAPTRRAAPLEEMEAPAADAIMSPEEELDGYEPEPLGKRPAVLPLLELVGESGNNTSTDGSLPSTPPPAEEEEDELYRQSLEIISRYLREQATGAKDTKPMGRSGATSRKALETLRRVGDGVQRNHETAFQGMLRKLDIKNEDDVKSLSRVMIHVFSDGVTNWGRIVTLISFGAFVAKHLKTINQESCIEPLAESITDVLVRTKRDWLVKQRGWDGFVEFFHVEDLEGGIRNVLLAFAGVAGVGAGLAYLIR
# [3] = target: T1, Polyadenylate-binding protein 1 (Homo sapiens, UniProt P11940); experiment: MLLE binding blockers, Cy5 peptide tracer – biochemical, fluorescence polarization, Cy5-PAM2 peptide, secondary, miRNA deadenylation inhibitor project, dose response (AID 602260); assay type: functional; conditions: read-out: IC50_Mean
# T1 sequence (P11940 whole entry): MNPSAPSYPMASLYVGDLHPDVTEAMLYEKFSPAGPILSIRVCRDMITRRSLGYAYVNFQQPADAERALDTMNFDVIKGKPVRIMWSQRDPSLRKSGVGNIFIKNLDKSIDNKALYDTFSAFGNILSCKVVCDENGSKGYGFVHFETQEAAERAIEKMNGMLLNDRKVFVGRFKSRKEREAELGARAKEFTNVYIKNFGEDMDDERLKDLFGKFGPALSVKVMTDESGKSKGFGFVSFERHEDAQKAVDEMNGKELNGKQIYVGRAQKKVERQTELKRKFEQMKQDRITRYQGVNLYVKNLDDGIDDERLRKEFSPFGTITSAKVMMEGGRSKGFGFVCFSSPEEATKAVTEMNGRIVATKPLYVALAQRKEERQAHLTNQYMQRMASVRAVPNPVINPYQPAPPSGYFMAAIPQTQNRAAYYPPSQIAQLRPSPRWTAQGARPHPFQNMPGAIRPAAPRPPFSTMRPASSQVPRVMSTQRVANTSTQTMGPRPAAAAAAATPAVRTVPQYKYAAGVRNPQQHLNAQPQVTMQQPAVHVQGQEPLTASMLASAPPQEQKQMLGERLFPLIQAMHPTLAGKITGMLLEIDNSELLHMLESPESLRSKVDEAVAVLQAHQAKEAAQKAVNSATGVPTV
# [4] = target: E3 ubiquitin-protein ligase XIAP (Homo sapiens, UniProt P98170); experiment: Counter Screen using XIAP-Bir3 for Chemical Antagonists of Bir1/2 domains of IAP-family anti-apoptotic proteins. [Related pubchem assays (depositor defined):AID1018, AID1449, AID1514, AID1638, AID1749, AID1750, AID488957, AID488963]
# [5] = target: Eukaryotic translation initiation factor 4E (Mus musculus, UniProt P63073); experiment: blockers of eIF4G binding by eIF4E – biochemical, TR-FRET, dose response (AID 855); assay type: functional;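 note: potency for disrupting eIF4E binding to eIF4GI seen as loss of FRET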
# Chain of Eukaryotic translation initiation factor 4E (P63073 whole entry): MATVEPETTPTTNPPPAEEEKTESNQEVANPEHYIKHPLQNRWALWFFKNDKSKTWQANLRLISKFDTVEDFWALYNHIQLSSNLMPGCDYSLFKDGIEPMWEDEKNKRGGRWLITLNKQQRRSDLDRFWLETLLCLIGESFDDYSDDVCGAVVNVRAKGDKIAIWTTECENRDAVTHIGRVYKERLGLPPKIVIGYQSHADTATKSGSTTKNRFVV
# [6] = target: Female germline-specific tumor suppressor gld-1 (Caenorhabditis elegans, UniProt Q17339); experiment: blockers of GLD-1/TGE RNA complex formation – biochemical, fluorescence polarization, C. elegans, dose response (AID 2802);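 note: fluorescence polarization of labeled TGE RNA bound by purified gld-1 protein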
# Chain of Female germline-specific tumor suppressor gld-1 (Q17339 whole entry, the tested form may be a part): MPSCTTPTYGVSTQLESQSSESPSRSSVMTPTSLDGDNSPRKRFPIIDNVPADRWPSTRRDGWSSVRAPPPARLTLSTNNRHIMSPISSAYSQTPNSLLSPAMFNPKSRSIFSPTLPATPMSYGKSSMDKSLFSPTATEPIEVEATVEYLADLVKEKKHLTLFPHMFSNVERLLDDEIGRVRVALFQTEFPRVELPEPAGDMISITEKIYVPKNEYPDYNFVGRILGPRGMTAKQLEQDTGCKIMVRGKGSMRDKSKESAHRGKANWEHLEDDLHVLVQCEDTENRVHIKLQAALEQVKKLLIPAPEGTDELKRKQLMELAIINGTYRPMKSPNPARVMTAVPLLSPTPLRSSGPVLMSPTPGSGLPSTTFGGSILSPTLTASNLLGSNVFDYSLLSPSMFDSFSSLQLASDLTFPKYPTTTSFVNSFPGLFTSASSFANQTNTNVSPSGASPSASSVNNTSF
# [7] = target: T1, Polyadenylate-binding protein 1; experiment: MLLE domain peptide-binding blockers, IC50 – biochemical, fluorescence polarization, FITC-PAM2 peptide, dose response (AID 602259); assay type: functional; conditions: read-out: IC50_Mean
# Protein RecA = target: T2, Protein RecA (Mycobacterium tuberculosis, UniProt P9WHJ3); experiment: Fluorescence Cell-Free Homogeneous Dose Retest to Identify Inhibitors of RecA-Intein Splicing Activity. [Related pubchem assays (depositor defined):AID2097, AID2223, AID489010, AID492950]; assay type: functional
# T2 sequence (P9WHJ3 whole entry): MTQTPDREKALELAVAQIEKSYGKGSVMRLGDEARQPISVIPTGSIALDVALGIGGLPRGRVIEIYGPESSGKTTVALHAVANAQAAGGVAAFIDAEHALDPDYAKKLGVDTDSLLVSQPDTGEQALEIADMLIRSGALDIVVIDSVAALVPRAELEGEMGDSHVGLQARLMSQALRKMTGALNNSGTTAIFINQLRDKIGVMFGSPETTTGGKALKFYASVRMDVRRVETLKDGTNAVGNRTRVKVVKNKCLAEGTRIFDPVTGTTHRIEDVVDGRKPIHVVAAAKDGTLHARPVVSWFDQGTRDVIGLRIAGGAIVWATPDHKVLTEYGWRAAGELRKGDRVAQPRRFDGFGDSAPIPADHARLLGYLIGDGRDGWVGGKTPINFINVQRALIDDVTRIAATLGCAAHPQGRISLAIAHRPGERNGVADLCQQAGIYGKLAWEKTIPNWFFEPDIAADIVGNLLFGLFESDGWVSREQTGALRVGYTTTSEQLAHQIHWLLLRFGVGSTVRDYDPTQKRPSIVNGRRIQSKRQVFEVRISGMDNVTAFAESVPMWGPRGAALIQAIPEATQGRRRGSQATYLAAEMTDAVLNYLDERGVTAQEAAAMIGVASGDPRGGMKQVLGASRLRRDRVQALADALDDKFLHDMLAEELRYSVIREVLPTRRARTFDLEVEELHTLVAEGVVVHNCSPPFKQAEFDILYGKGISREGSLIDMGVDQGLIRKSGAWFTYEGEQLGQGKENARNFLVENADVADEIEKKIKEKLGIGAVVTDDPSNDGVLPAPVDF
# [8] = target: T3, Replicative DNA helicase DnaB (Mycobacterium tuberculosis, UniProt P9WMR3); experiment: DnaB intein splicing inhibitors, dose response, biochemical, cell-free fluorescence (AID 449749); assay type: functional
# T3 sequence (P9WMR3 whole entry): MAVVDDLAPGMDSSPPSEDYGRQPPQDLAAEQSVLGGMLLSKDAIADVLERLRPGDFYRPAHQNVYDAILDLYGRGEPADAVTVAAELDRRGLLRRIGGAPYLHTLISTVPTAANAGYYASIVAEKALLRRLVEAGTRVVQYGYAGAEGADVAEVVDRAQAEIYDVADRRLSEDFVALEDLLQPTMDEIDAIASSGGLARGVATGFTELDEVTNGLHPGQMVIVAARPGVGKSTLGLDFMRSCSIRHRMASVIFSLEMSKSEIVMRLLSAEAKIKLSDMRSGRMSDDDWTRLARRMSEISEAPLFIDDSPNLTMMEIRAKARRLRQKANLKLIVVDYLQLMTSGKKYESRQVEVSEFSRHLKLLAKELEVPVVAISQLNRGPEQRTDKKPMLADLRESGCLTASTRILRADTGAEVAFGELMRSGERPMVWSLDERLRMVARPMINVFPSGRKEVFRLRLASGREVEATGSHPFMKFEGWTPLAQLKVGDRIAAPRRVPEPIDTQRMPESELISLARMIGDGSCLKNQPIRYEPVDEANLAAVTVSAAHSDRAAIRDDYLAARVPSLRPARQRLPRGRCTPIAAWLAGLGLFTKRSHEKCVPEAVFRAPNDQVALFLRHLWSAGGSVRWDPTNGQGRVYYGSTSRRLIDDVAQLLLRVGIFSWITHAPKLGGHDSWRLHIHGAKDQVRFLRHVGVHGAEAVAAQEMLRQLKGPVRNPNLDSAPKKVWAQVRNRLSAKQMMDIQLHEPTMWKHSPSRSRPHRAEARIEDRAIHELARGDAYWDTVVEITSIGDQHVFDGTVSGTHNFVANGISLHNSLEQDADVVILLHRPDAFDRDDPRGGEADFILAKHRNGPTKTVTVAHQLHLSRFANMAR
# [9] = MIN6 cell viability loss – mouse insulinoma, cytotoxicity control, dose response (AID 2122); assay type: functional;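 note: confirmatory high-throughput counterscreen run to flag cytotoxic compounds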
# [10] = decrease of insulin promoter-GFP reporter – imaging, high-content screening, mouse beta cells (AID 1628); assay type: functional; conditions: MIN6
smiles,measurement,setting,value
CC(=O)N(/N=C/c1ccc([N+](=O)[O-])o1)c1nc2ccccc2c(=O)n1-c1ccccc1,IC50,Exodeoxyribonuclease V,> 119 µM (inactive)
same,IC50,[1],45.9 µM (inactive)
Nc1ccc(O)c2c1C(=O)c1ccccc1C2=O,IC50,Protein Rev,> 75.4 µM (not active)
same,IC50,[2],4.35 µM (active)
same,IC50,[3],> 66 µM (inactive)
same,IC50,[4],< 0.313 µM (active)
same,IC50,[5],25.7 µM (active)
same,IC50,[6],3.05 µM (active)
same,IC50,[7],24.3 µM (inactive)
same,EC50,Protein RecA,39 µM (active)
same,AC50,[8],79.2 µM (active)
CC(=O)Nc1ccc(S(=O)(=O)N(C)CCOCc2ccccc2)cc1,IC50,[9],1.48 µM (active)
same,IC50,[10],1.82 µM (active)
